Measurements published in publication PMC7997032, “Organic synthesis and anti-influenza A virus activity of cyclobakuchiols A, B, C, and D” (PLoS ONE, 2021).
Where “and” joins values, the source holds several entries; their conditions need not be identical. Equal entries are not always repeated.

What was measured:
A/PR/8/34 virus [1] = experiment: RT-qPCR of viral mRNAs (NP, NS1, PA, PB1, PB2, M2) in infected MDCK cells; assay type: cell-based, influenza A H1N1 virus
[2] = test system: canine interferon-β (Ifn-β); experiment: RT-qPCR of Ifn-β mRNA in MDCK cells with or without A/PR/8/34 virus; assay type: cell-based; details: 12.5uM, relative to virus - DMSO; for MDCK IFN-b mRNA, ave: ave of #1-3 exp; for MDCK IFN-b mRNA, individual replicates: replicates 1-3 of #1, #2, #3 exp, listed as Cyclobakuchiol B
A/PR/8/34 virus [3] = assay type: cell-based; details: 12.5 μM, 24h WB
Nrf2 = Nrf2 reporter assay (dual luciferase system) in MDCK cells; assay type: cell-based, canine
A/WSN/33 virus [4] = experiment: Influenza A viral growth assay (viral titer of culture media); assay type: cell-based, influenza A H1N1 virus; details: A/WSN/33 (WSN), 12.5uM, average of #1-3 exp (n=9)
[5] = test system: NAD(P)H quinone oxidoreductase 1 (Nqo1); experiment: RT-qPCR of Nqo1 mRNA in MDCK cells with or without A/PR/8/34 virus; assay type: cell-based, canine; details: for NQO1 Canis lupus mRNA, ave / NQO1 Canis lupus mRNA, individual replicates: 12.5uM, MDCK, relative to virus - DMSO; for NQO1 Canis lupus mRNA, ave: ave of #1-3 exp; for NQO1 Canis lupus mRNA, individual replicates: replicates 1-3 of #1, #2, #3 exp, listed as Cyclobakuchiol B
A/PR/8/34 virus [6] = experiment: Influenza A viral growth assay (viral titer of culture media); assay type: cell-based, influenza A H1N1 virus; design: viral titer of culture media, individual replicate / viral titer of culture media, ave: unit not given here; details: A/PR/8/34 (PR8), 12.5uM, average of #1-3 exp (n=9)
A/PR/8/34 virus [7] = experiment: Immunofluorescence staining of viral NP in influenza A virus-infected MDCK cells; details: for NP/DAPI (%) ave: average of 9 wells
A/WSN/33 virus [8] = experiment: as above; details: WSN
Protocol: MDCK cells were seeded on a 96-well plate at 1 × 10^4 cells/well. […] Each mixture was added to the cells at 37°C in the presence of 5% CO2. […] After influenza A viral infection for 24 h, the cells were fixed with 4% paraformaldehyde in phosphate-buffered saline (PBS) for 30 min at 4°C and subsequently permeabilized by the addition of 0.3% Triton X-100 for 20 min at 25°C. A mouse primary antibody was used to detect the NP of A/PR/8/34 or A/WSN/33 viruses (FluA-NP 4F1; SouthernBiotech, AL, USA). Alexa Fluor488-conjugated goat anti-mouse IgG (H + L) antibody (Thermo Fisher Scientific) was used as the secondary antibody. Cell nuclei were then stained using diamidino-2-phenylindole (DAPI) (Thermo Fisher Scientific). Wells were photographed using a fluorescence microscope (BIOREVO BZ-X700; Keyence, Osaka, Japan). The proportion of influenza A NP-positive cells per DAPI-positive cells was calculated based on measurements recorded using BZ-X Analyzer software (Keyence).

[9] = MDCK cells, PR8 virus, relative to DMSO (about 1), ave of #1-3 exp (9 values)
[10] = MDCK cells, PR8 virus, relative to DMSO, replicates 1-3 of #1, #2, #3 exp, listed as Cyclobakuchiol B

`C=C[C@]1(C)CCC(C(=C)C)C(c2ccc(O)cc2)C1` (stereo in doubt) [cyclobakuchiol B] was tested, and the “PR8 NP gene expression qPCR, ave” value (A/PR/8/34 virus [1]; MDCK PR8, NP mRNA, relative (DMSO about 1), average of #1-3 exp (n=9)) was 0.03219, the “PR8 NP gene expression qPCR, individual replicate” value (A/PR/8/34 virus [1]; MDCK PR8, NP mRNA, relative (DMSO about 1), replicates of #1-3 exp, listed as Cyclobakuchiol B) was 0.01121 and 0.02587 and 0.02406 and 0.03207 and 0.05973 and 0.04959 and 0.06567 and 0.01197 and 0.009584 and the “PR8 NS1 gene expression qPCR, ave” value (A/PR/8/34 virus [1]; MDCK PR8, NS1 mRNA, relative (DMSO about 1), average of #1-3 exp (n=9)) was 0.02013. The “PR8 NS1 gene expression qPCR, individual replicate” value (A/PR/8/34 virus [1]; MDCK PR8, NS1 mRNA, relative (DMSO about 1), replicates of #1-3 exp, listed as Cyclobakuchiol B) was 0.008731 and 0.02017 and 0.01871 and 0.02102 and 0.03896 and 0.02064 and 0.02879 and 0.01388 and 0.01026, the “PR8 PA gene expression qPCR, ave” value (A/PR/8/34 virus [1]; MDCK PR8, PA mRNA, relative (DMSO about 1), average of #1-3 exp (n=9)) was 0.02293 and the “PR8 PA gene expression qPCR, individual replicate” value (A/PR/8/34 virus [1]; MDCK PR8, PA mRNA, relative (DMSO about 1), replicates of #1-3 exp, listed as Cyclobakuchiol B) was 0.01293 and 0.01727 and 0.01489 and 0.01881 and 0.04016 and 0.03375 and 0.04497 and 0.01194 and 0.01167. The “PR8 M2 gene expression qPCR, ave” value (A/PR/8/34 virus [1]; [9]) was 0.0246, the “PR8 PB1 gene expression qPCR, ave” value (A/PR/8/34 virus [1]; [9]) was 0.01874 and the “PR8 PB2 gene expression qPCR, ave” value (A/PR/8/34 virus [1]; [9]) was 0.02588. For the same compound, the “PR8 M2 gene expression qPCR, individual replicates” value (A/PR/8/34 virus [1]; [10]) was 0.01123 and 0.02732 and 0.01583 and 0.02218 and 0.04353 and 0.0372 and 0.04279 and 0.01139 and 0.009915, the “PR8 PB1 gene expression qPCR, individual replicates” value (A/PR/8/34 virus [1]; [10]) was 0.01046 and 0.01271 and 0.006702 and 0.01001 and 0.03897 and 0.03125 and 0.03696 and 0.01163 and 0.009984 and the “PR8 PB2 gene expression qPCR, individual replicates” value (A/PR/8/34 virus [1]; [10]) was 0.01333 and 0.02659 and 0.01745 and 0.02138 and 0.03944 and 0.03441 and 0.05711 and 0.01315 and 0.01011. For the same compound, the “MDCK IFN-b mRNA, ave” value ([2]; virus +) was 5.577, the “MDCK IFN-b mRNA, individual replicates” value ([2]; virus +) was 1.734 and 10.09 and 8.268 and 12.9454 and 4.2 and 4.194 and 4.358 and 1.919 and 2.486 and the “MDCK IFN-b mRNA, ave” value ([2]; virus -) was 2.313. The “MDCK IFN-b mRNA, individual replicates” value ([2]; virus -) was 0.5929 and 0.6599 and 7.314 and 8.038 and 1.086 and 0.609 and 1.136 and 0.5738 and 0.8068, the NP/b-actin ave (A/PR/8/34 virus [3]; average of 3 experiments) was 0.58 and the NS1/b-actin ave (A/PR/8/34 virus [3]; average of 3 experiments) was 0.5288. The “NP mean (western blot signal intensity, ImageJ)” value (A/PR/8/34 virus [3]; single experiment) was 62.433 and 67.763 and 96.513, the NP/b-actin (A/PR/8/34 virus [3]; single experiment) was 0.7275 and 0.4304 and 0.582 and the NS1/b-actin (A/PR/8/34 virus [3]; single experiment) was 0.4321 and 0.5028 and 0.6516. For the same compound, the “NS1 mean (western blot signal intensity, ImageJ)” value (A/PR/8/34 virus [3]; single experiment) was 72.927 and 75.866 and 57.321, the “Nrf2 activation (reporter assay) in contrast to DMSO” value (Nrf2; 12.5 μM, 24 h, MDCK cells) was “induced” and the “pNQO1-ARE-Luc NRF2 reporter assay, ave” value (Nrf2; 12.5uM, relative to DMSO trans+, ave of #1-3 exp) was 1.319. For the same compound, the “pNQO1-ARE-Luc NRF2 reporter assay, individual replicates” value (Nrf2; 12.5uM, relative to DMSO trans+, two values each of #1, #2, #3 exp, listed as Cyclobakuchiol B) was 1.305 and 0.9752 and 1.512 and 1.4747 and 1.32 and 1.325, the “viral titer of culture media, ave” value (A/WSN/33 virus [4]; 12h) was 12633.3 and the “viral titer of culture media, ave” value (A/WSN/33 virus [4]; 24h) was 25455556. The “viral titer of culture media, ave” value (A/WSN/33 virus [4]; 48h) was 275666667, the “viral titer of culture media, ave” value (A/WSN/33 virus [4]; 72h) was 208055556 and the “relative mRNA level of Nqo1 compared with 5-treated cells” value [5] was “significantly higher”. For the same compound, the “NQO1 Canis lupus mRNA, ave” value ([5]; virus + (PR8)) was 1.527, the “NQO1 Canis lupus mRNA, individual replicates” value ([5]; virus + (PR8)) was 1.793 and 1.729 and 1.393 and 1.933 and 1.0008 and 1.009 and 1.147 and 1.683 and 2.053 and the “NQO1 Canis lupus mRNA, ave” value ([5]; virus -) was 1.333. The “NQO1 Canis lupus mRNA, individual replicates” value ([5]; virus -) was 1.179 and 1.391 and 1.475 and 1.419 and 1.382 and 1.189 and 1.372 and 1.36 and 1.235, the “relative mRNA level of Nqo1 compared with DMSO” value ([5]; without A/PR/8/34 virus, 12.5 μM, 24 h) was “significantly upregulated” and the “viral titer of culture media, ave” value (A/PR/8/34 virus [6]; 12h) was 24444.4. For the same compound, the “viral titer of culture media, ave” value (A/PR/8/34 virus [6]; 48h) was 41111.1, the “viral titer of culture media, ave” value (A/PR/8/34 virus [6]; 72h) was 58888.9 and the “percentage of influenza A NP-positive cells relative to DMSO” value (A/PR/8/34 virus [7]; A/PR/8/34, 3.1 μM, 24 h, Fig 4B) was “significantly reduced”. The “NP/DAPI (%) ave” value (A/PR/8/34 virus [7]; A/PR/8/34, 3.13 uM) was 5.089%, the “NP/DAPI (%) ave” value (A/PR/8/34 virus [7]; A/PR/8/34, 6.25 uM) was 1.925% and the “NP/DAPI (%) ave” value (A/PR/8/34 virus [7]; A/PR/8/34, 12.5 uM) was 1.075%. The “NP/DAPI (%) ave” value (A/PR/8/34 virus [7]; A/PR/8/34, 25 uM) was 0.927%, the IC50 (A/PR/8/34 virus [7]; Influenza A virus, PR/8, MDCK, read-out: half maximal (50%) inhibitory concentration (IC50)) was 2400 ± 600 nM and the “NP/DAPI (%) ave” value (A/WSN/33 virus [8]; 3.13uM, ave of 9 values (3 exp)) was 30.5534%. For the same compound, the “NP/DAPI (%) ave” value (A/WSN/33 virus [8]; 6.25uM, ave of 9 values (3 exp)) was 28.157%, the “NP/DAPI (%) ave” value (A/WSN/33 virus [8]; 12.5uM, ave of 9 values (3 exp)) was 30.5618% and the “NP/DAPI (%) ave” value (A/WSN/33 virus [8]; 25uM, ave of 9 values (3 exp)) was 32.0683%. For the same compound, the “NP/DAPI (%) ave” value (A/WSN/33 virus [8]; ave summary, 3.13%) was 30.5534%, the “NP/DAPI (%) ave” value (A/WSN/33 virus [8]; ave summary, 6.25%) was 28.157% and the “NP/DAPI (%) ave” value (A/WSN/33 virus [8]; ave summary, 12.50%) was 30.5618%. The “NP/DAPI (%) ave” value (A/WSN/33 virus [8]; ave summary, 25%) was 32.0683%.
